# Assay results taken from patent US20060009425A1, “Oral formulations of paricalcitol” (priority 2004, published 2006).
# Read-outs that look alike come from different tables or passages of the source.
# Legend:
# [1] = Bioavailability of capsule vs intravenous formulation, end-stage CKD on continuous peritoneal dialysis (Example 9); type: in vivo; conditions: human, plasma, 0.24 μg/kg; for half-life: CPD, read-out: harmonic mean of the terminal elimination half-life (converted)
# Method: Methodology: This was a Phase I, open-label, randomized, single-dose, two-period, crossover, nonfasting study. Subjects were randomized into two sequence groups of
# Formulations A and B. The two nonfasting study administrations were: […]
# The strengths of the capsule formulations were 0.5, 1, 2 or 4 μg.
# The intravenous formulation contained 2-10 micrograms/milliliter of paricalcitol, 30% (v/v) propylene glycol, 20% (v/v) ethanol and 50% (v/v) water.
# Both formulations were administered immediately after CPD exchange in the morning, 30 minutes after breakfast was served. Phosphate binders, commonly used in the management of end-stage renal disease, were withheld 8 hours prior to and 2 hours after the drug administration. A washout interval of at least 7 days separated the doses of the two study periods.
# Plasma concentrations of paricalcitol were determined using a validated HPLC-tandem mass spectrometric assay method at Abbott Laboratories, Abbott Park, Ill. The lower limit of quantitation of paricalcitol was 0.02 ng/mL using 0.6 mL of plasma.
# Pharmacokinetic: The pharmacokinetic parameter values of paricalcitol were estimated using noncompartmental methods. These included: Cmax, t1/2, AUC0-t, AUC0-∞, CL, CL/F, Tmax, Vdβ and Vdβ/F, as described in the last example.
# Statistical Methods: An analysis of variance (ANOVA) was performed for β and the logarithms of Cmax, AUC0-t and AUC0-∞. […] The number and percentage of subjects reporting adverse events were tabulated by COSTART term and body system. Laboratory values outside the reference ranges were flagged and evaluated for clinical significance.
# [2] = Single and multiple dose pharmacokinetics, moderate to severe chronic renal impairment (Example 4, Table 23); type: in vivo, human; set-up: AUC0-24 on Study Day 8 vs. AUC0-∞ on Study Day 1, Point Estimate / AUC0-24 on Study Day 8 vs. AUC0-∞ on Study Day 1, 95% Confidence Interval: unit not given beside the values; conditions: for Cmax / Tmax / half-life / AUC(0-t) / AUC(0-inf) / fraction unbound / concentration at 24 h: human, plasma, oral; for AUC(0-t): read-out: AUC0-24; for concentration at 24 h: Study Day 9, read-out: trough concentration 24 h post dose on Study Day 8
# Method: Methodology: This was a Phase 1, open-label, single and multiple-dose, multi-center study. A sufficient number of subjects were screened to have approximately 15 subjects with moderate renal impairment (CKD Stage 3) (Group 1, Glomerular Filtration Rate (GFR) of 30-60 mL/min) and approximately 15 subjects with severe renal impairment (CKD Stage 4) (Group 2, GFR <30 mL/min, not requiring dialysis) enrolled in the study. The subjects in moderate renal impairment group received 4 μg paricalcitol capsule on Study Day 1, and 4 μg QD for 6 doses over Study Days 3-8. The subjects in severe renal impairment group received 3 μg paricalcitol capsule on Study Day 1 and 3 μg QD for 6 doses over Study Days 3-8. Each dose of study was taken orally with approximately 180 mL of water at 0800, 30 minutes after breakfast was served.
# Plasma concentrations of paricalcitol were determined using a validated liquid chromatography method with tandem mass spectrometric assay method at Abbott Laboratories, Ill.
# Pharmacokinetic: Values for the pharmacokinetic parameters of paricalcitol, including the maximum observed plasma concentration (Cmax), the time to Cmax(Tmax), the terminal phase elimination rate constant (β), half life (t1/2), area under the plasma concentration-time curve (AUC), apparent total clearance (CL/F), and apparent volume of distribution (Vdβ/F) were determined using noncompartmental methods. Values of these parameters were determined after both single (first) dose (Study Day 1) and multiple doses (Study Day 8). In addition, minimum observed plasma concentration (Cmin), accumulation index (AI), and degree of fluctuation (DFL) after multiple doses were determined for the dose on Study Day 8 (steady state).
# Pharmacokinetic: Point estimates and the corresponding 95% confidence intervals were obtained for central values of the pharmacokinetic parameters for each of the renal impairment groups. Two-sample t-test was performed to compare the pharmacokinetic parameters across the two renal impairment groups on each of Study Days 1 and 8. […] Within the framework of the analysis, the mean trough concentration values on Study Days 6, 7 and 8 were each compared to that at 24 h post Study Day 8 dose.
# An analysis of variance (ANOVA) was performed on Tmax, β, and the logarithms of AUC and Cmax to compare the single-dose and steady-state data for each of the renal impairment groups. The same test was also performed for each group for the difference between the natural logarithm of the AUC0-24 on Day 8 and the natural logarithm of the AUC0-∞ on Study Day 1. Then the point estimate and 95% confidence interval for the ratio of the central values (the central value of the AUC0-24 on Study Day 8 to that of the AUC0-∞ on Study Day 1) were obtained by exponentiating the corresponding point estimate for the difference.
# Paricalcitol capsules are under development for the prevention and treatment of secondary hyperparathyroidism in chronic kidney disease (CKD). The aim of this open-label, single and multiple dose, multi-center study was to evaluate the safety, and pharmacokinetics (PK) of paricalcitol in CKD Stage 3 (single 4 μg dose on Day 1 and 4 μg QD from Days 3-8) and CKD Stage 4 (single 3 μg dose on Day 1 and 3 μg QD from Days 3-8) subjects.
# [3] = 3 ug, severe renal impairment, 3 μg QD, Study Day 8
# [4] = 3 ug, severe renal impairment, 3 μg, Study Day 1
# [5] = 4 ug, moderate renal impairment, 4 μg QD, Study Day 8
# [6] = 4 ug, moderate renal impairment, 4 μg, Study Day 1
# [7] = 4 μg, moderate renal impairment
# [8] = moderate renal impairment, 4 μg QD, Study Day 8
# [9] = moderate renal impairment, 4 μg, Study Day 1
# [10] = severe renal impairment, 3 μg QD, Study Day 8
# [11] = severe renal impairment, 3 μg, Study Day 1
smiles,measurement,setting,value
"C[C@H](/C=C/[C@H](C)C(C)(C)O)[C@H]1CC[C@H]2/C(=C/C=C3C[C@@H](O)C[C@H](O)C3)CCC[C@]12C [Paricalcitol, 19-nor-1α,3β,25-trihydroxy-9,10-secoergosta-5(Z); 7(E),22(E)-triene]",half-life,[1]; following intravenous administration,~15 h
same,half-life,[1]; following oral administration,~18 h
same,bioavailability,"[1]; single oral dose of capsule formulation, end-stage renal disease on CPD, read-out: absolute bioavailability",86.1%
same,Cmax,[2]; [3],0.097 ± 0.023 ng/mL
same,Tmax,[2]; [3],9.1 ± 5.5 h
same,half-life,"[2]; 3 ug, severe renal impairment, 3 μg QD, Study Day 8, harmonic mean ± pseudo-standard deviation, read-out: t1/2 (converted)",22.9 ± 5.63 h
same,AUC(0-t),[2]; [3],1.75 ± 0.421 ng·h/mL
same,AUC(0-inf),[2]; [4],2.13 ± 0.733 ng·h/mL
same,Cmax,[2]; [4],0.065 ± 0.012 ng/mL
same,Tmax,[2]; [4],5.9 ± 3.6 h
same,half-life,"[2]; 3 ug, severe renal impairment, 3 μg, Study Day 1, harmonic mean ± pseudo-standard deviation, read-out: t1/2 (converted)",19.7 ± 7.19 h
same,AUC(0-t),[2]; [4],1.02 ± 0.23 ng·h/mL
same,fraction unbound,"[2]; 3 μg, severe renal impairment",0.0008 ± 0.0002
same,concentration at 24 h,"[2]; 3 μg, severe renal impairment",0.057 ± 0.014 ng/mL
same,Cmax,[2]; [5],0.155 ± 0.057 ng/mL
same,Tmax,[2]; [5],4.2 ± 1.9 h
same,half-life,"[2]; 4 ug, moderate renal impairment, 4 μg QD, Study Day 8, harmonic mean ± pseudo-standard deviation, read-out: t1/2 (converted)",15.5 ± 3.21 h
same,AUC(0-t),[2]; [5],2.22 ± 0.701 ng·h/mL
same,AUC(0-inf),[2]; [6],2.42 ± 0.614 ng·h/mL
same,Cmax,[2]; [6],0.113 ± 0.036 ng/mL
same,Tmax,[2]; [6],4.7 ± 2.5 h
same,half-life,"[2]; 4 ug, moderate renal impairment, 4 μg, Study Day 1, harmonic mean ± pseudo-standard deviation, read-out: t1/2 (converted)",16.8 ± 2.65 h
same,AUC(0-t),[2]; [6],1.45 ± 0.407 ng·h/mL
same,fraction unbound,[2]; [7],0.0008 ± 0.0005
same,concentration at 24 h,[2]; [7],0.057 ± 0.019 ng/mL
same,half-life,"[2]; moderate and severe renal impairment (CKD Stage 3 and 4) subjects, read-out: mean half-life",16 to 23 h
same,steady state essentially reached by,"[2]; moderate and severe renal impairment subjects, QD dosing",≤ 6 Study Day
same,"AUC0-24 on Study Day 8 vs. AUC0-∞ on Study Day 1, 95% Confidence Interval",[2]; moderate renal impairment,0.8150-0.9896
same,"AUC0-24 on Study Day 8 vs. AUC0-∞ on Study Day 1, Point Estimate",[2]; moderate renal impairment,0.8981
same,CL/F,[2]; [8],2.014 ± 0.774 L/h
same,Cmax/Dose,[2]; [8],0.039 ± 0.014 ng/mL/µg
same,Cmin,[2]; [8],0.047 ± 0.018 ng/mL
same,DFL (degree of fluctuation),[2]; [8],116.77 ± 35.24%
same,Vdβ/F,[2]; [8],46.76 ± 19.35 L
same,β,[2]; [8],0.045 ± 0.009 h−^1
same,CL/F,[2]; [9],1.766 ± 0.505 L/h
same,Cmax/Dose,[2]; [9],0.028 ± 0.009 ng/mL/µg
same,Vdβ/F,[2]; [9],43.72 ± 14.45 L
same,β,[2]; [9],0.041 ± 0.007 h−^1
same,pre-dose trough concentration,"[2]; moderate renal impairment, Study Day 6",0.050 ± 0.016 ng/mL
same,pre-dose trough concentration,"[2]; moderate renal impairment, Study Day 7",0.053 ± 0.014 ng/mL
same,pre-dose trough concentration,"[2]; moderate renal impairment, Study Day 8",0.053 ± 0.019 ng/mL
same,"AUC0-24 on Study Day 8 vs. AUC0-∞ on Study Day 1, 95% Confidence Interval",[2]; severe renal impairment,0.7612-0.9227
same,"AUC0-24 on Study Day 8 vs. AUC0-∞ on Study Day 1, Point Estimate",[2]; severe renal impairment,0.8380
same,CL/F,[2]; [10],1.751 ± 0.388 L/h
same,Cmax/Dose,[2]; [10],0.032 ± 0.008 ng/mL/µg
same,Cmin,[2]; [10],0.049 ± 0.010 ng/mL
same,DFL (degree of fluctuation),[2]; [10],64.86 ± 17.79%
same,Vdβ/F,[2]; [10],61.61 ± 20.34^¥ L
same,β,[2]; [10],0.030 ± 0.007 h−^1
same,CL/F,[2]; [11],1.517 ± 0.359 L/h
same,Cmax/Dose,[2]; [11],0.022 ± 0.004 ng/mL/µg
same,Vdβ/F,[2]; [11],46.40 ± 12.45 L
same,β,[2]; [11],0.035 ± 0.013 h−^1
same,pre-dose trough concentration,"[2]; severe renal impairment, Study Day 6",0.051 ± 0.011 ng/mL
same,pre-dose trough concentration,"[2]; severe renal impairment, Study Day 7",0.050 ± 0.015 ng/mL
same,pre-dose trough concentration,"[2]; severe renal impairment, Study Day 8",0.056 ± 0.012 ng/mL
